Laboratory results published in PubChem BioAssay AID1645848.
In brackets after ≈: the same amount, converted by molar mass.

Conditions: buffer; pH 7.4; 6.0 h; 150.0 µM

Point of comparison: `CNc1nc2c(s1)C(c1ccccc1F)CC(=O)N2` (stereo not drawn), solubility kinetic 13.7 µg/mL (≈ 49.3 µM). Against it:
- O=C(Nc1ccccc1F)c1nc(S(=O)(=O)Cc2ccccc2F)ncc1Cl — 3.8-fold lower, 3.63 µg/mL (≈ 8.57 µM)
- COC(=O)CNC(=O)c1nc(-c2ccc([S+](C)(=O)[O-])cc2)c2ccccn12 — 6-fold lower, 2.27 µg/mL (≈ 5.87 µM)
- COC(=O)[C@H](Cc1ccc(O[S+](=O)([O-])c2cccc3cnccc23)cc1)N[S+](=O)([O-])c1ccc2cnccc2c1 — 4.3-fold lower, 3.21 µg/mL (≈ 5.55 µM)
- COc1nccc(-c2nc(Nc3ccc(F)c(F)c3)c3ccccc3n2)c1Cl — lower, < 1 µg/mL
- CC[C@H]1CN(C)[C@H]2Cc3c([nH]c4ccccc34)C(=O)C[C@H]1[C@H]2C(=O)OC — higher, > 52 µg/mL
- Cc1cccc2nc(NC3=NC(c4[nH]ncc4Cl)C4=C(CCCC4=O)N3)oc12 (stereo not drawn) — 7.5-fold lower, 1.82 µg/mL (≈ 4.6 µM)
- O=C(Nc1cccc(C(F)(F)F)c1)Nc1cc(S(=O)(=O)NC2CC2)ccc1-c1ccsc1 — lower, < 1 µg/mL
- Cc1ccccc1C(=O)N1CCc2cc(-c3nc(NC(=O)Cc4ccc5c(c4)OCO5)sc3C)ccc21 — lower, < 1 µg/mL
- Cc1nn(Cc2ccc(Cl)cc2)c(C)c1NC(=O)c1cc(-c2ccc3c(c2)OCO3)on1 — lower, < 1 µg/mL
- c1ccc(CNc2nc(NCc3ccccc3)c3ccccc3n2)cc1 — lower, < 1 µg/mL
- CCOC(=O)CCNc1cc(N2CCc3ccccc3CC2)nc(-c2ccccn2)n1 — 1.6-fold lower, 8.45 µg/mL (≈ 20.2 µM)
- CC(=O)c1c(C)[nH]c(C(=O)Nc2ccc(C)c(S(=O)(=O)Nc3ccc(Br)cc3)c2)c1C — lower, < 1 µg/mL
- COc1ccc(NC(=O)c2c(C)cccc2C)cc1[S+](=O)([O-])N1CCCCC1 — 2.8-fold higher, 38.8 µg/mL (≈ 96.3 µM)
- Cc1ccc(-c2cc(C(=O)NCc3cnn(C)c3C)c3cc(Br)ccc3n2)cc1 — lower, < 1 µg/mL
- COCCn1ccc2c(C3=CCOCC3)nc(-c3cccc(NC(C)=O)c3)cc21 — higher, > 87 µg/mL
- CC(C)Oc1ccc(-c2ccc(=O)n(CC(=O)NCCc3ccccc3)n2)cc1 — within 1.5-fold, 16.8 µg/mL (≈ 43 µM)
- COc1ccccc1N1CCN(c2ccc3cc(S(=O)(=O)N4CCCCC4)ccc3n2)CC1 — lower, < 1 µg/mL
- CN(Cc1ccc(/C=C/C(=O)NO)cc1)CC12CC3CC(CC(C3)C1)C2 — higher, > 35 µg/mL
- Cc1cnc(N2CCC(C(N)=O)CC2)nc1-c1cccc(N(C)C)c1 — higher, > 50 µg/mL
- O=[S+]([O-])(Nc1nccs1)c1ccc(NCc2cc(Cl)cc(Br)c2O)cc1 — lower, < 1 µg/mL
- N=c1c2c(ncn1-c1ccccc1)Oc1ccc3ccccc3c1C2c1ccc2c(c1)CCO2 (stereo not drawn) — 6.8-fold lower, 2 µg/mL (≈ 4.5 µM)
- CCCCOC(=O)c1ccnc2cc(C(OCCN3CCCCC3)c3ccccc3Cl)sc12 (stereo not drawn) — lower, < 1 µg/mL
- CC[C@@H]1C(=O)N(C)c2cnc(Nc3ccc(C(=O)NC4CCN(C)CC4)cc3OC)nc2N1C1CCCC1 — higher, > 77 µg/mL
- CC(C)(C)C1CCc2c(sc(NC(=O)c3ccncc3)c2C(N)=O)C1 (stereo not drawn) — lower, < 1 µg/mL
- O=C(c1ccc2c(c1)ncn2-c1ccc(C(F)(F)F)cc1)N1CCCCC1 — higher, > 55 µg/mL
- CCOc1ccc(N2CC(c3nc(-c4cc(OC)c(OC)c(OC)c4)no3)CC2=O)cc1 (stereo not drawn) — 5.8-fold lower, 2.38 µg/mL (≈ 5.41 µM)
- CN(C)C(=O)c1nc(-c2ccc(Cl)cc2Cl)c2cnccn12 — higher, > 59 µg/mL
- c1cc(-c2cc(-c3ccncc3)c3cncn3c2)c2[nH]ncc2c1 — 5.6-fold lower, 2.43 µg/mL (≈ 7.8 µM)
- CC(C)CCNC(=O)[C@H](CC(C)C)NC(=O)[C@H]1O[C@@H]1C(=O)O — 2.4-fold higher, 33 µg/mL (≈ 105 µM)
- O=C(NC1CCCc2c1[nH]c1c(Cl)cccc21)c1ccc2c(c1)OCO2 (stereo not drawn) — lower, < 1 µg/mL
- O=C(c1ccc2c(c1)ncn2-c1cccc(Cl)c1)N1CCCCC1 — higher, > 50 µg/mL
- COc1ccc(C(=O)NC2CCCc3c2[nH]c2ccccc32)cc1OC (stereo not drawn) — 2.9-fold lower, 4.79 µg/mL (≈ 13.7 µM)
- Cc1ccc(-c2cc(C(=O)Nc3ccc(-n4cccn4)cc3)c3ccccc3n2)cc1C — lower, < 1 µg/mL
- COc1ccc2oc(NC3=NC(c4[nH]ncc4Cl)C4=C(CCCC4=O)N3)nc2c1 (stereo not drawn) — within 1.5-fold, 11.2 µg/mL (≈ 27.2 µM)
- CC1(C)C[C@@H]2C[C@@](C)(CN2S(=O)(=O)c2ccc(C(=O)Nc3ccc(Cl)c(S(=O)(=O)N4CCOCC4)c3)cc2)C1 — lower, < 1 µg/mL
- Cc1ccc(S(=O)(=O)n2cc(C(=O)Nc3nc(-c4ccccc4)cs3)c3ccccc32)cc1 — 6.2-fold lower, 2.2 µg/mL (≈ 4.65 µM)
- O=C(O)c1ccnc(-c2cc(C(=O)NCCc3ccccc3)ccn2)c1 — higher, > 51 µg/mL
- Nc1nc2c(s1)C(c1ccccc1)CC(=O)N2 (stereo not drawn) — 1.9-fold higher, 26 µg/mL (≈ 106 µM)
- Cc1cc(C)nc(NC(=S)N2CCN(c3ccc(F)cc3F)CC2)c1 — 1.8-fold higher, 24.8 µg/mL (≈ 68.4 µM)
- O=C1CCCC2=C1C(C1CCCCC1Cl)N=C(NC1NC3CCCCC3S1)N2 (stereo not drawn) — lower, < 1 µg/mL
- COc1ccc(NC(=O)c2[nH]c(C)c(C(C)=O)c2C)cc1S(=O)(=O)N1CCCCCC1 — 4.4-fold lower, 3.11 µg/mL (≈ 6.94 µM)
- Cc1noc(C)c1-c1ccc(-c2cc(C(N)=O)c(NC(N)=O)s2)c(O[C@H]2CCNC2)c1 — 2.8-fold higher, 38.5 µg/mL (≈ 87.3 µM)
- Cc1ccc([S+](=O)([O-])n2cc(-c3ccc(-c4ccccc4)cc3)c3ccccc32)cc1 — lower, < 1 µg/mL
- Cc1cn(CCN2CCN(c3ccccc3-c3cc(C#N)cc(C(=O)NCCCN4CCCC4)c3)CC2)c2ccccc12 — within 1.5-fold, 14.6 µg/mL (≈ 25.4 µM)
- CCCCCN(CCC12CC3CC(CC(C3)C1)C2)C(=O)NCCCc1ccncc1 — lower, < 1 µg/mL
- COc1ccc(-c2ccc3ncc(Nc4ccncc4)n3n2)cc1OC — 2.3-fold higher, 31.9 µg/mL (≈ 91.9 µM)
- O=C(c1ccccc1)N1CCC(c2nn(-c3ccc(F)cc3)c(=O)[nH]2)CC1 — higher, > 54 µg/mL
